In patent US11072588B2, “Barbituric acid derivatives comprising cationic and lipophilic groups” (UNIVERSITETET I TROMSØ—NORGES ARKTISKE UNIVERSITET, priority 2017, dated 2021):
≈ marks a conversion by molar mass, not a printed value. Like-named read-outs stand apart in the source and are kept apart here.

Experiments:
[1] = test system: P. aeruginosa 50692172; test: MIC, multi-resistant clinical isolate; assay type: cell-based, Pseudomonas aeruginosa; conditions: for MIC: Pseudomonas aeruginosa, read-out: Antimicrobial activity (MIC)
[2] = test system: P. aeruginosa K34-7; test: MIC, multi-resistant clinical isolate; assay type: cell-based, Pseudomonas aeruginosa; conditions: for MIC: Pseudomonas aeruginosa, K347, read-out: Antimicrobial activity (MIC)
[3] = test system: antibiotic susceptible Gram-positive and Gram-negative reference strains; test: MIC assay, ranges over the reference strains; assay type: cell-based
Description: (§1) Working solutions of the test derivatives were prepared with up to 100% DMSO and stored at −20° C. If necessary, the solutions were heated to 40-80° C. before testing to facilitate complete dissolution. Double-distilled water was used in all dilutions prepared. […] A microdilution susceptibility test was used for MIC determination according to Clinical and Laboratory Standards Institute, “Methods for Dilution Antimicrobial Sisceptibility Tests for Bacteria That Graw Aerobically”, Approved Standard M07-A9, edition 2012, with modifications as described by Igumnova et al (Bioorg Med Chem, 2016, 24 (22), 5884-5894).
(§2) Briefly, the bacterial inoculum was adjusted to approximately 2.5-3×10^4 cells/mL in Mueller-Hinton broth (MHB, Difco Laboratories, USA), and incubated in a ratio of 1:1 with test derivatives in polystyrene 96-well flat-bottom microplates (NUNC, Roskilde, Denmark). Positive growth control (without test derivatives) and negative control (without bacteria) were included. The reference antibiotic was oxytetracycline hydrochloride (Sigma Aldrich, Saint Louis, Mo., USA). The microplates were incubated in an EnVision microplate reader (Perkin-Elmer, Turku, Finland) placed in an incubator set to 35° C. for 48 h. The MIC value was defined as the lowest concentration of derivative resulting in no bacterial growth as determined by OD600 measurement. All derivatives were tested in three parallels.

[4] = Determination of haemolytic activity; assay type: cell-based; conditions: human red blood cells (washed, from heparinized fresh blood); human RBCs, 1 h, 37° C.; read-out: RBC: haemolytic activity against human RBCs (EC50)
Description: Hemolysis was determined using a heparinized fraction (1000 IU/mL) of freshly drawn blood. Blood collected in EDTA containing test tubes (Vacutest®, KIMA, Arzergrande, Italy) was used for determination of the hematocrit (hct). The heparinized blood was washed 3× with pre-warmed PBS and adjusted to a final hct of 4%. Derivatives in DMSO (50 mM) were added to a 96-well polypropylene V-bottom plate (NUNC, Fisher Scientific, Oslo, Norway) and serially diluted. The test concentration range was 500-4 μM with DMSO contents ≤1%. A solution of 1% triton X-100 was used as positive control for 100% hemolysis. As negative control a solution of 1% DMSO in PBS buffer was included. No signs of DMSO toxicity were detected. RBCs (1% v/v final concentration) were added to the well plate and incubated at 37° C. and 800 rpm for 1 h. After centrifugation (5 min, 3000 g), 100 μL of each well were transferred to a 96-well flat bottom plate and absorbance was measured at 545 nm with a microplate reader (VersaMax™, Molecular Devices, Sunnyvale, Calif., USA). The percentage of hemolysis was calculated as the ratio of the absorbance in the derivative-treated and surfactant treated samples, corrected for the PBS background. Three independent experiments were performed and EC50 values are presented as averages.

[5] = test system: A. baumanii K55-13; test: MIC, multi-resistant clinical isolate; assay type: cell-based, Acinetobacter baumannii; conditions: for MIC: Acinetobacter baumannii, K5513, read-out: Antimicrobial activity (MIC); for selectivity index (EC50/MIC): RBC EC50 / MIC
Description: as §1, §2
(§3) The MIC was determined as explained above with some exceptions; working solutions of test derivatives were prepared from concentrated DMSO stocks stored at room temperature, the density of the bacterial inoculum was increased 40× to 1-1.2×10^6 cells/mL, enterococci were incubated in Brain Heart Infusion broth (BHIB, Difco Laboratories, USA), the microplates were incubated for 24 h, and the derivatives were tested in four parallels.

[6] = test system: A. baumanii K12-21; test: MIC, multi-resistant clinical isolate; assay type: cell-based, Acinetobacter baumannii; conditions: for MIC: Acinetobacter baumannii, K1221, read-out: Antimicrobial activity (MIC); for selectivity index (EC50/MIC): RBC EC50 / MIC
Description: as §1, §2, §3

[7] = test system: A. baumanii K44-35; test: MIC, multi-resistant clinical isolate; assay type: cell-based, Acinetobacter baumannii; conditions: for MIC: Acinetobacter baumannii, K4435, read-out: Antimicrobial activity (MIC); for selectivity index (EC50/MIC): RBC EC50 / MIC
Description: as §1, §2, §3

[8] = test system: A. baumanii K63-58; test: MIC, multi-resistant clinical isolate; assay type: cell-based, Acinetobacter baumannii; conditions: A. baumanii K63-58, resistant to colistin; for MIC: Acinetobacter baumannii, K6358, 24 h, read-out: Antimicrobial activity (MIC); for selectivity index (EC50/MIC): RBC EC50 / MIC
Description: as §1, §2, §3

[9] = test system: A. baumanii K47-42; test: MIC, multi-resistant clinical isolate; assay type: cell-based, Acinetobacter baumannii; conditions: for MIC: Acinetobacter baumannii, K4742, read-out: Antimicrobial activity (MIC); for selectivity index (EC50/MIC): RBC EC50 / MIC
Description: as §1, §2, §3

[10] = test system: K. pneumoniae 50625602; test: MIC, multi-resistant clinical isolate; assay type: cell-based, Klebsiella pneumoniae; conditions: for MIC: Klebsiella pneumoniae, read-out: Antimicrobial activity (MIC); for selectivity index (EC50/MIC): RBC EC50 / MIC
Description: as §1, §2, §3

[11] = test system: K. pneumoniae K66-45; test: MIC, multi-resistant clinical isolate; assay type: cell-based, Klebsiella pneumoniae; conditions: for MIC: Klebsiella pneumoniae, K6645, read-out: Antimicrobial activity (MIC); for selectivity index (EC50/MIC): RBC EC50 / MIC, K. pneumoniae K66-45
Description: as §1, §2, §3

[12] = test system: K. pneumoniae 50667959; test: MIC, multi-resistant clinical isolate; assay type: cell-based, Klebsiella pneumoniae; conditions: for MIC: Klebsiella pneumoniae, read-out: Antimicrobial activity (MIC); for selectivity index (EC50/MIC): RBC EC50 / MIC
Description: as §1, §2, §3

[13] = test system: K. pneumoniae K47-25; test: MIC, multi-resistant clinical isolate; assay type: cell-based, Klebsiella pneumoniae; conditions: for MIC: Klebsiella pneumoniae, K4725, 24 h, read-out: Antimicrobial activity (MIC)
Description: as §1, §2, §3

[14] = test system: K. pneumoniae 50531633; test: MIC, multi-resistant clinical isolate; assay type: cell-based, Klebsiella pneumoniae; conditions: K. pneumoniae 50531633, resistant to colistin; for MIC: Klebsiella pneumoniae, 24 h, read-out: Antimicrobial activity (MIC); for selectivity index (EC50/MIC): RBC EC50 / MIC
Description: as §1, §2, §3

Compound | MIC [1] [mg/L] | MIC [2] [mg/L] | EC50 at 1 h [4] [mg/L] | MIC [5] [mg/L] | selectivity index (EC50/MIC) [5] | MIC [6] [mg/L] | selectivity index (EC50/MIC) [6] | MIC [7] [mg/L] | selectivity index (EC50/MIC) [7] | MIC [8] [mg/L] | selectivity index (EC50/MIC) [8] | MIC [9] [mg/L] | selectivity index (EC50/MIC) [9] | MIC [10] [mg/L] | selectivity index (EC50/MIC) [10] | MIC [11] [mg/L] | selectivity index (EC50/MIC) [11] | MIC [12] [mg/L] | selectivity index (EC50/MIC) [12] | MIC [14] [mg/L] | also measured
CC(C)(C)c1ccc(CC2(Cc3ccc(C(C)(C)C)cc3)C(=O)N(CCCCN)C(=O)N(CCCCN)C2=O)cc1 [Compound 7(i), 1,3-bis(4-aminobutyl)-5,5-bis(4-tertbutylbenzyl) pyrimidin-2,4,6(1H,3H,5H)-trione] | > 32 | > 32 | 143 (≈ 254 µM) | 16 (≈ 28.4 µM) | (9) | 16 (≈ 28.4 µM) | (9) | 32 (≈ 56.9 µM) | (4) | 16 (≈ 28.4 µM) | (9) | 16 (≈ 28.4 µM) | (9) | 16 (≈ 28.4 µM) | (9) | 32 (≈ 56.9 µM) | (4) | 32 (≈ 56.9 µM) | (4) | 16 (≈ 28.4 µM) | MIC ([3]; range over S. aureus, C. glutamicum, E. coli, P. aeruginosa reference strains, read-out: MIC values against all the reference strains): 1 to 8 mg/L (≈ 1.78 to 14.2 µM); MIC [13]: > 32 mg/L; selectivity index (EC50/MIC) [14]: (9)
N=C(N)NCCCCN1C(=O)N(CCCCNC(=N)N)C(=O)C(Cc2ccc(F)c3ccccc23)(Cc2ccc(F)c3ccccc23)C1=O [8(v), 1,1′-(4,4′-(5,5-bis((4-fluoronaphthalen-1-yl)methyl)-2,4,6-trioxodihydropyrimidine-1,3(2H,4H)-diyl)bis(butane-4,1-diyl))diguanidine] | 16 (≈ 23.9 µM) | 16 (≈ 23.9 µM) | 88 (≈ 131 µM) | 8 (≈ 11.9 µM) | (11) | 8 (≈ 11.9 µM) | (11) | 8 (≈ 11.9 µM) | (11) | 8 (≈ 11.9 µM) | (11) | 8 (≈ 11.9 µM) | (11) | 16 (≈ 23.9 µM) | (6) | 4 (≈ 5.96 µM) | (22) | 4 (≈ 5.96 µM) | (22) | 8 (≈ 11.9 µM) | selectivity index (EC50/MIC) ([1]; RBC EC50 / MIC): (6); selectivity index (EC50/MIC) ([2]; RBC EC50 / MIC, P. aeruginosa K34-7): (6); MIC ([3]; reference strains, range, read-out: MIC values against the Gram-negative bacteria E. coli and P. aeruginosa): 1 to 4 mg/L (≈ 1.49 to 5.96 µM); MIC ([13]; K. pneumoniae K47-25, resistant to colistin): 8 mg/L (≈ 11.9 µM); selectivity index (EC50/MIC) ([13]; RBC EC50 / MIC, K. pneumoniae K47-25, resistant to colistin): (11); selectivity index (EC50/MIC) [14]: (11)
